Literature values in patent publication US6323203A, “Composition and method for treating diabetes” (Beyer; Camille F., priority 2000, dated 2001).

Experiments:
[1] = tested on: nicotinic acid vasomotor and antilipolytic effect; conditions: cited from earlier work; for effect on vasomotor and antilipolytic effect of nicotinic acid: prior administration of the prostaglandin synthesis inhibitor
[2] = oral glucose tolerance test; cited from earlier work
[3] = in vivo; cited from earlier work

SMILES: O=C(O)c1cccnc1 [nicotinic acid]
- use in diabetics ([1]; Molnar 1964): contraindicated for diabetics
- effect on triglyceride hydrolysis to FFA and glycerol ([1]; in vivo): inhibits triglyceride hydrolysis to FFA and glycerol
- cutaneous vasomotor reaction of nicotinic acid, consequence in patient care ([1]; nicotinic acid prescribed in patient care): sufficiently undesirable as to be the principal cause for lack of compliance
- effect on blush area ([1]; nicotinic acid): transiently stimulate
- effect on plasma concentrations of nonesterified fatty acids ([1]; nicotinic acid): reduce
- onset of cutaneous reaction relative to peak serum concentration ([1]; nicotinic acid): the onset preceded peak serum PZA concentrations, as is the case also for the cutaneous reactions associated with nicotinic acid

SMILES: COc1ccc2c(c1)c(CC(=O)O)c(C)n2C(=O)c1ccc(Cl)cc1 [indomethacin]
- effect on vasomotor and antilipolytic effect of nicotinic acid [1]: abolish the vasomotor, but not the antilipolytic effect of nicotinic acid

SMILES: NS(=O)(=O)c1cc2c(cc1Cl)NCNS2(=O)=O [hydrochlorothiazide]
- effect on serum glucose and insulin [2]: increased serum glucose and insulin concentrations
- effect on potassium [3]: kaliuresis

SMILES: CC(=O)Oc1ccccc1C(=O)O [aspirin]
- effect on vasomotor and antilipolytic effect of nicotinic acid [1]: abolish the vasomotor, but not the antilipolytic effect of nicotinic acid
